Reference: patent publication US20260144798A1, “Disruption of Vascular Smooth Muscle Relaxation by Carfilzomib May be the Primary Reason for CFZ-Induced Vascular Dysfunction” (AMGEN INC., priority 2019, published 2026)

Tests used:
rat aortic rings = assay: Sodium nitroprusside-induced relaxation of phenylephrine-precontracted rat aortic rings
Protocol: An isometric myograph (DMT 620M) was used for ex vivo measurement of vascular function. Eight-to 10-week old Sprague Dawley rats (purchased from Charles River Laboratories, Wilmington, MA) were first anesthetized with 3% isoflurane and then euthanized using inhaled desflurane. The aortas were isolated in an ice-cold, oxygenated (95% O2, 5% CO2) Krebs-Henseleit buffer (118.3 mM NaCl, 4.7 mM KCl, 1.2 mM MgSO4, 1.2 mM KH2PO4, 2.5 mM CaCl2, 25 mM NaHCO3, and 11.0 mM glucose; purchased from Sigma-Aldrich, St. Louis, MO). The thoracic aorta was carefully cleaned to remove perivascular fat and cut into 2-mm rings that were mounted between two stainless steel wires in the myograph chamber containing 8 mL of Krebs-Henseleit buffer in 95% O2 and 5% CO2 at 37° C. First, the rings were equilibrated in the chamber for 20 minutes, followed by a gradual increase of mechanical stretch until a final stretch of 10 mN (Newton) was reached. After an additional incubation with fresh buffer for 30 minutes, the rings were constricted with 8 mL of 80 mM KPSS (43 mM NaCl, 80 mM KCl, 2.5 mM CaCl2, 1.2 mM MgSO4, 1.2 mM KH2PO4, 25.0 mM NaHCO3, and 11.0 mM glucose) for 15 to 20 minutes, followed by 3 washes with the Krebs-Henseleit buffer until the force returned to the baseline stretch. The tension of the aortic rings was continuously measured with the Lab Chart 7 data acquisition system (ADInstruments, Colorado Springs, CO). In Some of the experiments the aortic rings were pre-treated with 100 μM N(gamma)-nitro-L-arginine methyl ester (L-NAME; Sigma-Aldrich) and 10 μM indomethacin for 10 minutes prior to the pre-incubation with CFZ (Amgen Inc.) for 2 hours. After an additional incubation with fresh buffer for 30 minutes, the rings were constricted with 8 mL of 80 mM KPSS (43 mM NaCl, 80 mM KCl, 2.5 mM CaCl2, 1.2 mM MgSO4, 1.2 mM KH2PO4, 25.0 mM NaHCO3, and 11.0 mM glucose) for 15 to 20 minutes, followed by 3 washes with the Krebs-Henseleit buffer until the force returned to the baseline stretch. The tension of the aortic rings was continuously measured with the Lab Chart 7 data acquisition system (ADInstruments, Colorado Springs, CO).
For assessment of the effect of CFZ on vascular relaxation, the pre-treated aortic rings were incubated with 1 μM PE for 20 minutes to induce contraction. For experiments involving sildenafil and tadalafil, a 10-minute pre-treatment with 30 nM of these smooth muscle relaxants was done prior to the incubation with CFZ. After reaching a stable contraction, ACh, sodium nitroprusside (SNP), nifedipine, riociguat, or cinaciguat was added to the chamber at an increasing concentration from 100 pM to 10 μM; each stepwise concentration increase was added after the response to the current concentration reached a plateau. The relaxation was continuously measured and plotted as percent relaxation normalized to the response with 1 μM PE.

eNOS = assay: Western blot of phosphorylated eNOS and eNOS in mouse endothelial cells; type: cell-based; details: different concentrations of CFZ (FIG. 3A)
Protocol: Protein levels of eNOS were unable to be assessed in rat endothelial cells; therefore, endothelial cells from mice were used. Mouse coronary endothelial cells (Cell Biologics) at passage 7 were seeded at 50,000 cells per well with 200 μL of endothelial cell media (Cell Biologics) in 96-well plates for 24 hours at 37° C. in 5% CO2. Some cells were pretreated with 100 μM L-NAME for 1 hour before adding 10 μM ACh. Cells were further treated with 0.3, 0.9, or 2.7 μM of CFZ or its vehicle for an additional 48 hours. The supernatant was collected and the amount of NO was assessed following the manufacturer's protocol for the colorimetric Nitric Oxide Assay Kit (Abcam, Cambridge, MA).
Each cell pellet was lysed in 50 to 70 μL RIPA buffer (Cell Signaling Technology, Danvers, MA) with the Halt™ protease and phosphatase inhibitor cocktail (Thermo Fisher Scientific). Lysates were quantitated and loaded onto the Li-COR Western blot system. Antibodies specific to phosphorylated eNOS and eNOS from Thermo Fisher Scientific, anti-Guanylyl Cyclase β1 (ER-19) (Sigma-Aldrich), and β-Actin (Sigma-Aldrich) were diluted 1:1000 for Western blot. Antibodies specific to p-VASP, VASP, and GADPH-HRP were purchased from Cell Signaling Technology.

GUCY1A3 = GUCY1A3 gene expression by RT-PCR in human aortic smooth muscle cells; type: cell-based; details: 24-hour treatment, 2.7 μM CFZ, SMCs (FIG. 4B)
Protocol: To confirm whether results could be replicated in human tissue, human aortic smooth muscle cells (Lonza, Walkersville, MD) were cultured in SmGM-2™ Smooth Muscle Cell Growth Medium-2 BulletKit™ (Lonza). The cells were maintained at 37° C. in a humidified incubator with 5% CO2. Cells were seeded at a concentration of 2.5×10^5 cells/mL of medium. After 1 day of culture, fresh medium with or without 2.7 μM CFZ was added and incubated for 6 or 24 hours.
Cell pellets were lysed in Buffer RLT (Qiagen, Germantown, MD) supplemented with β-mercaptoethanol (Bio-Rad, Hercules, CA). RNA was isolated and purified using QIAcube (Qiagen). The RNA concentration and quality were determined by NanoDrop 8000 spectrophotometer (Thermo Fisher Scientific, Wilmington, DE). DNA contaminant was removed through DNase I (Promega, Madison, WI) digestion prior to quantitative RT-PCR. Quantitative RT-PCR was performed in the QuantStudio 7 Flex RT-PCR system (Thermo Fisher Scientific) with RNA-to-CT 1-Step Kit (Thermo Fisher Scientific) and TaqMan assays (Applied Biosystems, Foster City, CA). The TaqMan assays were GUCY1A3(Hs01015574_m1) and 18S rRNA. Multiplex reactions were run in triplicates with the genes of interest and 18S rRNA normalization control. The average relative quantities were calculated from three separate experiments.

VASP = assay: Western blot of p-VASP (S239) in rat thoracic aortic tissue; details: CFZ treatment vs vehicle control (FIG. 6A)
Protocol: Each cell pellet was lysed in 50 to 70 μL RIPA buffer (Cell Signaling Technology, Danvers, MA) with the Halt™ protease and phosphatase inhibitor cocktail (Thermo Fisher Scientific). Lysates were quantitated and loaded onto the Li-COR Western blot system. Antibodies specific to phosphorylated eNOS and eNOS from Thermo Fisher Scientific, anti-Guanylyl Cyclase β1 (ER-19) (Sigma-Aldrich), and β-Actin (Sigma-Aldrich) were diluted 1:1000 for Western blot. Antibodies specific to p-VASP, VASP, and GADPH-HRP were purchased from Cell Signaling Technology. […] The number of measurements is indicated by “n.” #denotes P<0.05 (red vs. blue).

P38 pathway = assay: Western blot for activation of p38 pathway in rat aortic rings; details: 2.7 μM CFZ 1.5 hours, with or without indomethacin plus LNAME (FIG. 7)
Protocol: Aortas were isolated from 8-10 week old CD® (Sprague Dawley) rats (from Charles River Laboratories) in an ice-cold, oxygenated (95% O2, 5% CO2) Krebs-Henseleit buffer. The aortas were then carefully cleaned to remove perivascular fat and cut into 2-mm rings that were mounted between two stainless steel wires in the myograph chamber containing 8 mL of Krebs-Henseleit buffer in 95% O2 and 5% CO2 at 37° C. Rings were stretch until a final stretch of 10 mN (Newton) was reached and incubated for 30 mins for equilibration. The rings were constricted with 8 mL of 80 mM KPSS for 15 minutes, followed by 3 washes with the Krebs-Henseleit buffer until the force returned to the baseline stretch. The aorta were then treated for one of the following experiments: • For protein expression studies the aortic rings were pre-treated with 100 μM N(gamma)-nitro-L-arginine methyl ester (L-NAME; Sigma-Aldrich) and 10 μM indomethacin for 10 minutes prior to the pre-incubation with CFZ (Amgen Inc.) for 1.5 hours. The rings were then isolated for protein expression analysis. […]

[1] = Highest applicable CFZ concentration in the myograph chamber (saturation, precipitation); type: physicochemical; details: oxygenated myograph chamber, Krebs-Henseleit buffer
mice = details: depending on dosage and administration schedule; cited from earlier work

EC50 for SNP-induced relaxation, CFZ alone (rat aortic rings; FIG. 5A experiment, vehicle alone 7.2×10^−9): 1.7×10^−8 | EC50 for SNP-induced relaxation in the presence of L-NAME and indomethacin (rat aortic rings; in the presence of CFZ 2.7 μM, vehicle alone 1.8×10^−8): 4.3×10^−8 | highest CFZ concentration that could be applied; further increase gave saturated solution and precipitation [1]: 2.7 µM
Structure (SMILES): CC(C)C[C@H](NC(=O)[C@H](CCc1ccccc1)NC(=O)CN1CCOCC1)C(=O)N[C@@H](Cc1ccccc1)C(=O)N[C@@H](CC(C)C)C(=O)[C@@]1(C)CO1 [CFZ, carfilzomib]
effect on SNP-induced relaxation (rat aortic rings; rings pretreated with CFZ, increasing SNP (FIG. 2B)): appeared to interfere with SNP-induced relaxation | level of phosphorylated eNOS (eNOS): increasing level of phosphorylated eNOS corresponded to the increasing CFZ concentration | protein expression level of total eNOS (eNOS): remained the same | upregulation of GUCY1A3 gene expression (GUCY1A3): more than 25 fold | level of p-VASP (VASP): reduced level of p-VASP compared with the vehicle control | activation of p38 pathway (P38 pathway): caused activation of P38 pathway with or without endothelium dependent relaxing factors | effect on AMPKα/mTORC1 and PI3K/Akt/eNOS pathways (mice): inhibit AMPKα/mTORC1 pathways
